Bounds are passed on as bounds.

Data on five molecules can be found in article PMC12486805, “Preclinical evaluation of tridecaptin M: in vitro and in vivo efficacy against colistin-resistant Gram-negative bacterial pathogens and pharmacokinetics” (Antimicrobial Agents and Chemotherapy, 2025).

Series [1] can be described thus: in vitro. To be noted: mouse, liver microsomes, pH 7.4.
Method: (§4) For without cofactors, 20 µL of PBS was added instead of pre-incubated cofactors. […] At each specified time, a 100 µL sample was taken, processed through a sample extraction procedure, and submitted for LC-MS/MS analysis ([35]). Half-life (t1/2) of test/control items was determined using the following equation
(§5) where, elimination rate constant (k) = −(slope of linear regression curve).
Series [2] in a line: in vitro. To be noted: rat, liver microsomes, pH 7.4.
Method: as §4, §5
Series [3] in a line: in vitro. Conditions: human, liver microsomes, pH 7.4.
Method: as §4, §5
Series [4] concerns the target T1, CYP1A2 (Homo sapiens, UniProt P05177).
T1 sequence (P05177 1-516): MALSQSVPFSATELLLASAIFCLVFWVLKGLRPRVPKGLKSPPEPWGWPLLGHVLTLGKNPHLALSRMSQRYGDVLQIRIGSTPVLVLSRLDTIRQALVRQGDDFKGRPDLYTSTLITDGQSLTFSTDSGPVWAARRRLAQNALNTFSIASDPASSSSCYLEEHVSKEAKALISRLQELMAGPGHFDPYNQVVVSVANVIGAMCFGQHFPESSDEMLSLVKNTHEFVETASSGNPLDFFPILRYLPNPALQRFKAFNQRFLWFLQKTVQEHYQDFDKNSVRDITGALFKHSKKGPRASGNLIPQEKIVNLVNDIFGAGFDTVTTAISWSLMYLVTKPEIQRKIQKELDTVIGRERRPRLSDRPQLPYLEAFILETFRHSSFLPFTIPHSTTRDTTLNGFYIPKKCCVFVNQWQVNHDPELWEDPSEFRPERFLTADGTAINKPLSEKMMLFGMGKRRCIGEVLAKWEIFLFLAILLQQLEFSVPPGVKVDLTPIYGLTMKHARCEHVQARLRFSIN
Kind of series: in vitro. The series is classed as biochemical. To be noted: human, % inhibition CYP 1A2. On the procedure:
(§1) The CYP inhibition assay was performed for test/control inhibitor items in duplicates using a 96-well fluorescence plate. An example of the preparation of CYP inhibition is given below in Table 8.
(§2) The plate with CYP master premix with test/control was incubated to allow the test/control samples to interact with CYP enzyme for 10 ± 1 min at 25°C under shaking conditions (400 rpm) using Thermomixer. The assay was initiated by adding 10 µL of a substrate and NADP^+ mixture to all wells, including a vehicle control and an assay blank. […] After incubation, the reaction was quenched by adding 50 µL of stop reagent (0.5 M Tris base) to each well.

In series [5] the target is CYP2D6 (Homo sapiens, UniProt P10635). Kind of series: CYP inhibition assay, recombinant isoform, fluorescence. In kind it is biochemical. Conditions: human, recombinant CYP2D6. On the procedure:
as §1, §2

Series [6] addresses CYP2C9 (Homo sapiens, UniProt P11712). The description is as above. In kind it is biochemical. Conditions: human, read-out: % inhibition CYP 2C9. On the procedure:
as §1
The plate with CYP master premix with test/control was incubated to allow the test/control samples to interact with CYP enzyme for 10 ± 1 min at 25°C under shaking conditions (400 rpm) using Thermomixer. The assay was initiated by adding 10 µL of a substrate and NADP^+ mixture to all wells, including a vehicle control and an assay blank. The plate was then incubated at 25°C for 25 min with shaking at 400 rpm using a thermomixer. After incubation, the reaction was quenched by adding 50 µL of stop reagent (0.5 M Tris base) to each well. Fluorescence was measured using a microplate reader at excitation/emission wavelengths of 415/460 nm, respectively ([37]).

Series [7] relates to K. pneumoniae ATCC 700603. As to the kind of experiment: Peritonitis infection model for intravenous efficacy in Balb/c mice. In kind it is in vivo, Klebsiella pneumoniae. Conditions: single i.v. dose 5 mg/kg, 4 h post-infection. As to the method:
Balb/c mice (n = 6), 8-10 weeks old, are rendered neutropenic with cyclophosphamide as in previous experiments. A bacterial load of K. pneumoniae ATCC 700603 standard strain corresponding to ≈10^7 CFU/mL was used, and 100 μL was administered intraperitoneally to cause multi-organ infection conditions. At 4 h, the pre-treatment group was euthanized, and the right kidney of each mouse was harvested, homogenized, serially diluted, and spotted on MHA plates to determine bacterial CFU count per kidney. Simultaneously, at 4 h, the remaining groups were administered 5 mg/kg colistin, 5 mg/kg tridecaptin M, 10 mg/kg tridecaptin M, and vehicle control (PBS); 24 h after treatment, the remaining groups were euthanized, and the CFU count in the right kidney was determined the same as the 4 h pre-treatment group.

Series [8] in a line: Intravenous acute toxicity in mice. The series is classed as in vivo, Balb/c mice. Conditions: 18 mg/kg i.v. On the procedure:
In total, 8–10 week old female Balb/c mice (n = 3) were administered tridecaptin M starting at 15 mg/kg, 25 mg/kg, 50 mg/kg, and 100 mg/kg. […] In this study, we administered 18 mg/kg of colistin to mice intravenously. […] Later, in the second set, intermediate concentrations of 20 mg/kg, 25 mg/kg, 30 mg/kg, 35 mg/kg, and 40 mg/kg doses were also administered to n = 4 mice. In these groups, blood was collected at 24 h post administration or immediately after visible movement stopped (40 mg/kg group), serum was separated and pooled together for each group n = 4, and biochemical serum tests were conducted.

Series [9] deals with K. pneumoniae. The series is classed as cell-based, Klebsiella pneumoniae. On the procedure: (§3) The MIC for all isolates was determined using the broth microdilution method. This involved preparing CA-MHB medium and serially diluting antibiotic solutions by a factor of two. The test organism was adjusted to a concentration of ≈5 × 10^5 CFU/mL. In a sterile 96-well microtiter plate, 100 µL of CA-MHB, along with 100 µL of each antibiotic, was added, and serial dilutions were made. A 100 µL suspension of the organism was added to each well and mixed, resulting in a total reaction volume of 200 µL per well. The plate was then incubated at 37°C for 16–18 h. The MIC was identified as the lowest concentration of antibiotic that prevented any visible growth of the organism ([16]).

The conditions of series [10]: cited from earlier work.
Series [11] concerns E. coli. The series is classed as cell-based, Escherichia coli. On the procedure: as §3
The subject of series [12] is K. pneumoniae AH-16. As to the kind of experiment: Mucin peritonitis survival model in BALB/c mice. To be noted: 5 mg/kg s.c., three doses at 2, 12, 24 h post-infection. In kind it is in vivo, Klebsiella pneumoniae. As to the method:
The survival study was performed by following a method described earlier, with some modifications; 8–10 week old, female BALB/c mice, 10 mice in each group, were infected with 100μL (OD600nm = 1) of K. pneumoniae AH-16 bacterial suspension prepared in porcine mucin 5% via intraperitoneal injection. Mice were injected subcutaneously with tridecaptin M (10 mg/kg) and colistin (5 mg/kg). The treatment was given in three doses at 2 h, 12 h, and 24 h post-infection to ensure a 15 mg/kg/day maximum dose limit for colistin. The survival or death of mice was monitored and recorded every 12 h for 7 days ([41]).

Chain of CYP2C9 (P11712 whole entry): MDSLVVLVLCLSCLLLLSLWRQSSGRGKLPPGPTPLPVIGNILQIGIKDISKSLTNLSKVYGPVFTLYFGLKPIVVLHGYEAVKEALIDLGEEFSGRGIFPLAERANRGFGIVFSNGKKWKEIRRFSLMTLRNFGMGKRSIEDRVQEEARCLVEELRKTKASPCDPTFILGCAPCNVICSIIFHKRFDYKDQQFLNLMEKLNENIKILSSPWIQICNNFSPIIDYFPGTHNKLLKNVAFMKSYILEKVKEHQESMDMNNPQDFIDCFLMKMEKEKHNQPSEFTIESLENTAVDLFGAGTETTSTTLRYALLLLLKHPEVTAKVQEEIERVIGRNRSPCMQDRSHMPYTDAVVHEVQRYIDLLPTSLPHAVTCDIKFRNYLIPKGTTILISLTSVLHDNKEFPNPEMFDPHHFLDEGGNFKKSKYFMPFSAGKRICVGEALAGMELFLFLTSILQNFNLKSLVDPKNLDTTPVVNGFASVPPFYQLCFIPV
Chain of CYP2D6 (P10635 whole entry, canonical isoform): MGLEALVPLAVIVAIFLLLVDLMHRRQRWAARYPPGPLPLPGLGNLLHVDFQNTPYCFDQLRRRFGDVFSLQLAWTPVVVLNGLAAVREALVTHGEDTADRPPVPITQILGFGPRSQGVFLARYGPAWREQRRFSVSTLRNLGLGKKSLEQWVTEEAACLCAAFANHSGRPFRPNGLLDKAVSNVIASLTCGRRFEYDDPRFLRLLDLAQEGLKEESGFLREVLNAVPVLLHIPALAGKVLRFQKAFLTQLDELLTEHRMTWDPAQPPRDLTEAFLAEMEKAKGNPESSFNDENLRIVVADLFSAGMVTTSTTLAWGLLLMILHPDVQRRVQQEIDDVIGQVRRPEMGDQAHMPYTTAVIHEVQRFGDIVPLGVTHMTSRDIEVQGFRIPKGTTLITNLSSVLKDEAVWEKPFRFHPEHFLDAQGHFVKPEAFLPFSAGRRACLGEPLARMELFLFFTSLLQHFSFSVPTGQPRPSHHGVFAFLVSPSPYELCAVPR

For `O=C(O)Cc1ccccc1Nc1c(Cl)cccc1Cl` [Diclofenac, reference compound], in series [1], the half-life turned out to be 1.54 h, the microsomal CLint was 15 µL/min/mg, the fraction remaining at 0.5 h stood at 77.7% and the amount remaining at 1 h was 58.7%. In addition, the share remaining at 2 h in [1] was 40.1%. In addition, in series [2], the half-life was greater than 2 h, the microsomal CLint was less than 11.6 µL/min/mg, the share remaining at 0.25 h was 102% and the fraction remaining at 0.5 h turned out to be 88.6%. In series [2], the amount remaining at 1 h amounted to 67.2% and the amount remaining at 2 h was determined as 64.5%. In series [3], the half-life came out at 0.327 h, the microsomal CLint worked out at 70.6 µL/min/mg, the fraction remaining at 0.25 h came out at 53.2% and the share remaining at 0.5 h is 36.5%. In [3], the share remaining at 1 h amounted to 11.6% and the share remaining at 2 h stood at 8.3%.
In [4], `Cc1nc2c([nH]1)c(=O)n(C)c(=O)n2Cc1ccco1` [Furafylline, reference compound] came in with an inhibition at 25 min, 0.01 µM of less than 0%; an inhibition at 25 min, 0.03 µM of less than 0%; an inhibition at 25 min, 0.1 µM of less than 0%; an inhibition at 25 min, 0.3 µM of 9.3%. In series [4], this molecule returned an inhibition at 25 min, 1 µM of 45.3%; an inhibition at 25 min, 3 µM of 67.7%; an inhibition at 25 min, 10 µM of 90.8%.
As for `C=C[C@H]1C[N@@]2CC[C@H]1C[C@@H]2[C@@H](O)c1ccnc2ccc(OC)cc12` [Quinidine, reference compound], in series [5], the inhibition at 25 min, 0.003 µM came to 52.4%. For the same molecule, in series [5] (0.0003 µM, read-out: % inhibition CYP 2D6), the inhibition at 25 min, 0.0003 µM is less than 0%. Besides, in series [5] (0.001 µM, read-out: % inhibition CYP 2D6), the inhibition at 25 min, 0.001 µM was determined as 14%. The inhibition at 25 min, 0.01 µM in series [5] (0.01 µM, read-out: % inhibition CYP 2D6) is 88.6%. For the same molecule, the inhibition at 25 min, 0.03 µM in series [5] (0.03 µM, read-out: % inhibition CYP 2D6) stood at 92.6%. Further, the inhibition at 25 min, 0.1 µM in series [5] (0.1 µM, read-out: % inhibition CYP 2D6) stood at 93.4%. For the same molecule, in series [5] (0.3 µM, read-out: % inhibition CYP 2D6), the inhibition at 25 min, 0.3 µM is 92.5%. The inhibition at 25 min, 1 µM in series [5] (1 µM, read-out: % inhibition CYP 2D6) stood at 95.7%.
Take `Nc1ccc(S(=O)(=O)Nc2ccnn2-c2ccccc2)cc1` [Sulfaphenazole, reference compound]: the inhibition at 25 min, 0.001 µM in series [6] (0.001 µM) is less than 0%. For the same molecule, the inhibition at 25 min, 0.003 µM in [6] (0.003 µM) came out at 3.42%. In addition, in series [6] (0.01 µM), the inhibition at 25 min, 0.01 µM is 11.3%. Further, in [6] (0.03 µM), the inhibition at 25 min, 0.03 µM turned out to be 27.2%. Also, in series [6] (0.1 µM), the inhibition at 25 min, 0.1 µM turned out to be 34.7%. Also, the inhibition at 25 min, 0.3 µM in series [6] (0.3 µM) turned out to be 45.2%. The inhibition at 25 min, 1 µM in series [6] (1 µM) came out at 53.5%. The inhibition at 25 min, 3 µM in series [6] (3 µM) was found to be 57.9%.
In the case of colistin [reference compound], the “efficacy (CFU/kidney) compared with tridecaptin M” value in series [7] is given as “superior performance”. Further, in [8], the “outcome of i.v. administration” value was “immediately lethal”. The MIC range was 0.25 to 2 µg/mL in series [9] (Col-S (colistin sensitive) clinical isolates (72)) and 0.25 to 1 µg/mL in series [11] (Col-S clinical isolates (52)). Also, the MIC in [9] (Std. QC strain ATCC 700603) was 0.5 µg/mL; in series [11] (Std. QC strain ATCC 25922) it was 0.25 µg/mL. The “subcutaneous dose known to be lethal to mice” value in series [10] was “exceeding 36 mg/kg”. The “mortality in acute toxicity study” value in series [10] (colistin group of the same study) was “all mice in the colistin group died within 24 h”. In addition, the “survival at the end of 7 days” value in series [12] turned out to be 40%.
